{
  "source": "paper PMC6094957",
  "about": "“BdorOR88a Modulates the Responsiveness to Methyl Eugenol in Mature Males of Bactrocera dorsalis (Hendel)” (Frontiers in Physiology, 2018)",
  "key": {"BdorOR88a/BdorOrco": {"target": "T1, BdorOR88a/BdorOrco (Bactrocera dorsalis, UniProt A0A0G2UKI5)", "T1 construct": "gene OR88a; full-length OR88a (1,245 nt, 414 aa) co-expressed with BdorOrco from pCS2+ cRNAs in Xenopus laevis oocytes; with Odorant receptor coreceptor", "T1 sequence (A0A0G2UKI5 1-414)": "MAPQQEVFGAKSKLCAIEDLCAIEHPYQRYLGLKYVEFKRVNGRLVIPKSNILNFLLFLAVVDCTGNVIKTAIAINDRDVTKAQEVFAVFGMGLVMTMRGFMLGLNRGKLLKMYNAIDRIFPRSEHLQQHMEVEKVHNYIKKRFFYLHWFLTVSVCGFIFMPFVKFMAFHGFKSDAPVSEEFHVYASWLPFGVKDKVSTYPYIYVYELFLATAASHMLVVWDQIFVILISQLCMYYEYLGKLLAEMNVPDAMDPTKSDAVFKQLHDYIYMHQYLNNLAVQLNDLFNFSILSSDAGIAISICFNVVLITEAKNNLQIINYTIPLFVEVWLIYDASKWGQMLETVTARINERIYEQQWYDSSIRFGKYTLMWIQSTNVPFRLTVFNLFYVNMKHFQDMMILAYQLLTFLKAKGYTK", "T1 sequence (B2Z9Z0 1-473 partner)": "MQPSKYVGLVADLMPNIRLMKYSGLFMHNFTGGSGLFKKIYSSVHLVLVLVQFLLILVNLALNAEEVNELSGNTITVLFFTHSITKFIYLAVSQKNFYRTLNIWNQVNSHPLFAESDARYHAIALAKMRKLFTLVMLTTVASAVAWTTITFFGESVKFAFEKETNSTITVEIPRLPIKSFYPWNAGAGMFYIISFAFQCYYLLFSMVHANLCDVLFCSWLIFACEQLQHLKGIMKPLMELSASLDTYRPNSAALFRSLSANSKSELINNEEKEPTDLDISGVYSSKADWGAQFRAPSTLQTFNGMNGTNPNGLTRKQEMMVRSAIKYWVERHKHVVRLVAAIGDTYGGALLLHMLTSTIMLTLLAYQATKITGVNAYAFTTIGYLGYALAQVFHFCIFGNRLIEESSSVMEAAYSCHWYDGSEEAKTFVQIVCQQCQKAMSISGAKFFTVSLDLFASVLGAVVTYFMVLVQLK", "experiment": "two-electrode voltage clamp, Xenopus oocytes", "format": "cell-based", "text": "two-electrode voltage clamp, Xenopus oocytes on BdorOR88a/BdorOrco | half the maximal effective concentration"}, "BdorOR63a-1/BdorOrco": {"target": "T2, BdorOR63a-1/BdorOrco (Bactrocera dorsalis, UniProt A0A0G2UMW5)", "T2 construct": "gene OR63a-1; full-length OR63a-1 (1,248 nt, 415 aa) co-expressed with BdorOrco from pCS2+ cRNAs in Xenopus laevis oocytes; with Odorant receptor coreceptor", "T2 sequence (A0A0G2UMW5 1-415)": "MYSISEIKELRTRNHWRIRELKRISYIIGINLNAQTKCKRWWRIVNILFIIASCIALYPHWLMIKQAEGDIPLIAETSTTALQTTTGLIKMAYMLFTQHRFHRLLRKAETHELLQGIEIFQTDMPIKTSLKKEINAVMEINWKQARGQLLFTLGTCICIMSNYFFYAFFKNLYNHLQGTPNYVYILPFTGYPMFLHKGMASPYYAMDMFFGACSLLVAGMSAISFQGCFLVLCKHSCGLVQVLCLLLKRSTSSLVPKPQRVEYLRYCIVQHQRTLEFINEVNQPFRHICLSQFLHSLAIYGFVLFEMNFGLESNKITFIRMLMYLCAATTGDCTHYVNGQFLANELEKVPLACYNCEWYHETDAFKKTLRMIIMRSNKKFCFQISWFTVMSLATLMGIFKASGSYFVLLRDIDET", "T2 sequence (B2Z9Z0 1-473 partner)": "T1 sequence (B2Z9Z0 1-473 partner)", "experiment": "two-electrode voltage clamp, Xenopus oocytes", "format": "cell-based", "conditions": "weak response at 1 × 10^-3 M ME; co-expressed BdorOrco; holding potential -80 mV; Ringer's pH 7.6"}},
  "data": [
    {"smiles": "C=CCc1ccc(OC)c(OC)c1", "note": "[ME, methyl eugenol]", "values": [
      {"measurement": "EC50", "setting": "BdorOR88a/BdorOrco", "result": 28.3, "unit": "µM"},
      {"measurement": "current at 1 × 10^-3 M", "setting": "BdorOR63a-1/BdorOrco", "result": "~ 30 nA"}
    ]}
  ]
}
